Data published in patent publication US9290691B2, “Organic el material-containing solution, method for forming organic el thin film, organic el device comprising organic el thin film, and method for manufacturing organic el display panel” (IDEMITSU KOSAN CO., LTD., priority 2007, dated 2016).

Assay: Solubility Evaluation 1: anthracene compounds in various solvents, visual check
Assay type: physicochemical
Design: key to Solubility in Cyclohexanone / Solubility in Toluene / Solubility in Xylene / Solubility in Tetralin / Solubility in Dodecylbenzene / Solubility in Anisole / Solubility in Dioxane / Solubility in Butyl Acetate / Solubility in Methylethylketone / Solubility in N-methylpyrolidone: A: it was confirmed that the compounds were dissolved in the dropped solvents; C: the compounds were not completely dissolved and undissolved residues remained
Conditions: 30 mg compound, 1 g solvent, visual check
Method: (§1) 30 mg of each of anthracene compounds 1 to 14 represented by the following formulae was put into a sample bottle, and 1 g of each of various solvents was dropped into the bottle with agitation. By visual check, a case where it was confirmed that the compounds were dissolved in the dropped solvents is marked as A and a case where the compounds were not completely dissolved and undissolved residues remained is marked as C.

Row | SMILES | Solubility in Anisole | Solubility in Butyl Acetate | Solubility in Cyclohexanone | Solubility in Dioxane | Solubility in Dodecylbenzene | Solubility in Methylethylketone | Solubility in N-methylpyrolidone | Solubility in Tetralin | Solubility in Toluene | Solubility in Xylene
1 | c1ccc(-c2cc(-c3ccc4ccccc4c3)cc(-c3c4ccccc4c(-c4ccc5ccccc5c4)c4ccccc34)c2)cc1 [Compound 2] | C | C | A | A | C | C | A | C | A | A
2 | c1cc(-c2ccc3ccccc3c2)cc(-c2c3ccccc3c(-c3ccc4cc(-c5ccc6ccccc6c5)ccc4c3)c3ccccc23)c1 [Compound 4] | C | C | A | C | C | C | A | C | C | C
3 | c1ccc(-c2ccc3cc(-c4cccc(-c5c6ccccc6c(-c6ccc(-c7cccc8ccccc78)cc6)c6ccccc56)c4)ccc3c2)cc1 [Compound 3] | C | C | A | A | C | C | A | C | A | A
4 | c1cc(-c2ccc3ccccc3c2)cc(-c2c3ccccc3c(-c3cccc4ccccc34)c3ccccc23)c1 [Compound 6] | C | C | A | C | C | C | A | C | C | C
5 | c1ccc(-c2ccc3ccc(-c4c5ccccc5c(-c5cccc(-c6ccc7ccccc7c6)c5)c5ccccc45)cc3c2)cc1 [Compound 5] | C | C | A | C | C | C | A | C | C | C
6 | c1ccc2cc(-c3c4ccccc4c(-c4ccc(-c5cccc6ccccc56)cc4)c4ccccc34)ccc2c1 [Compound 1] | C | C | A | A | C | C | A | C | A | A

Continued, values first:

Row | Solubility in Anisole | Solubility in Butyl Acetate | Solubility in Cyclohexanone | Solubility in Dioxane | Solubility in Dodecylbenzene | Solubility in Methylethylketone | Solubility in N-methylpyrolidone | Solubility in Tetralin | Solubility in Toluene | Solubility in Xylene | SMILES
7 | C | C | C | C | C | C | C | C | C | C | c1ccc(-c2c3ccccc3c(-c3cccc(-c4cccc(-c5c6ccccc6c(-c6ccccc6)c6ccccc56)c4)c3)c3ccccc23)cc1 [Compound 12]
8 | C | C | A | A | C | C | A | C | A | A | c1ccc2cc(-c3ccc(-c4c5ccccc5c(-c5ccc(-c6cccc7ccccc67)cc5)c5ccccc45)cc3)ccc2c1 [Compound 7]
9 | C | C | A | C | C | C | A | C | C | C | c1ccc2cc(-c3ccc(-c4ccc(-c5c6ccccc6c(-c6ccc7ccccc7c6)c6ccccc56)cc4)c4ccccc34)ccc2c1 [Compound 9]
10 | C | C | A | C | C | C | A | C | A | A | c1cc(-c2ccc3ccccc3c2)cc(-c2c3ccccc3c(-c3ccc4ccccc4c3)c3ccccc23)c1 [Compound 10]
11 | C | C | A | A | C | C | A | C | A | C | c1ccc(-c2ccc(-c3ccccc3-c3c4ccccc4c(-c4c5ccccc5c(-c5ccccc5-c5ccc(-c6ccccc6)cc5)c5ccccc45)c4ccccc34)cc2)cc1 [Compound 14]
12 | C | C | C | C | C | C | C | C | C | C | c1ccc2cc(-c3c4ccccc4c(-c4ccc5ccccc5c4)c4ccccc34)ccc2c1 [Compound 11]
13 | C | C | C | C | C | C | C | C | C | C | c1ccc(-c2ccc(-c3c4ccccc4c(-c4ccc(-c5ccccc5)cc4)c4ccccc34)cc2)cc1 [Compound 13]
14 | C | C | A | C | C | C | A | C | C | C | c1ccc(-c2ccc3cc(-c4cccc(-c5c6ccccc6c(-c6ccc7ccccc7c6)c6ccccc56)c4)ccc3c2)cc1 [Compound 8]

Same assay, conditions: cyclohexanone

Row | SMILES | dissolution in cyclohexanone (in words)
15 | c1cc(-c2ccc3ccccc3c2)cc(-c2c3ccccc3c(-c3ccc4cc(-c5ccc6ccccc6c5)ccc4c3)c3ccccc23)c1 [Compound 4] | dissolved

Same assay, conditions: toluene

Row | SMILES | dissolution in toluene (in words)
16 | c1cc(-c2ccc3ccccc3c2)cc(-c2c3ccccc3c(-c3ccc4cc(-c5ccc6ccccc6c5)ccc4c3)c3ccccc23)c1 [Compound 4] | not dissolved

Assay: Solvent solubility of naphthacene host compound
Assay type: physicochemical
Conditions: aromatic substituent bonded to naphthacene skeleton in para position; solvent not stated
Excerpt: For instance, when an aromatic group as a substituent is bonded to a naphthacene skeleton in para position, the solubility is lowered.

Row | solubility | SMILES
17 | ≤ 0.1 mass % | c1ccc(-c2ccc(-c3c4ccccc4c(-c4ccc(-c5ccccc5)cc4-c4ccccc4)c4cc5ccccc5cc34)c(-c3ccccc3)c2)cc1

Assay: Solubility Evaluation 2: naphthacene compounds in various solvents, visual check
Assay type: physicochemical
Design: key: A: it was confirmed that the compounds were dissolved in the dropped solvents; C: the compounds were not completely dissolved and undissolved residues remained
Conditions: 30 mg compound, 1 g solvent
Method: as §1
Next, naphthacene compounds 15 and 16 were used in place of the anthracene compounds, and the solubility was evaluated in the same manner as the above. Same as in Solubility Evaluation 1, by visual check, a case where it was confirmed that the compounds were dissolved in the dropped solvents is marked as A and a case where the compounds were not completely dissolved and undissolved residues remained is marked as C. Moreover, a case where precipitation was observed after several hours of dissolution is marked as B. Result of solubility evaluation will be shown in Table 3 below.

Row | Solubility in Cycloheptanone | Solubility in Cyclohexanone | Solubility in N-methylpyrolidone | Solubility in Toluene | Solubility in Xylene | SMILES
18 | A | A | A | C | C | c1ccc(-c2cc(-c3ccccc3)c(-c3c4ccccc4c(-c4ccccc4)c4cc5ccccc5cc34)c(-c3ccccc3)c2)cc1 [Compound 16]
